Measured values reported in PubChem BioAssay (NCI).
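Values below derive from 48-hour exposures of cells grown in 96-well plates, with endpoints linearly interpolated between the two concentrations bracketing the appropriate inhibition level. GI50 marks 50% less growth. TGI is the concentration that stops growth completely.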

Legend:
Experiment in all cases: inhibition of tumour cell growth, NCI panel, 48 h
HCC-2998 colon = system: HCC-2998 colon
HT29 colon = system: HT29 colon
KM12 colon = system: KM12 colon
A549 NSCLC = system: A549 NSCLC
OVCAR-5 ovarian = system: OVCAR-5 ovarian

`c1ccc2c(c1)ccc1c3ccccc3c(NCCCCN3CCCCC3)cc21` showed a GI50 (HCC-2998 colon) of 1.75 µM, a TGI (HCC-2998 colon) of 3.36 µM and a GI50 (HT29 colon) of 3.5 µM. The TGI (HT29 colon) was > 100 µM, the GI50 (KM12 colon) was 1.75 µM and the TGI (KM12 colon) was 3.25 µM. The GI50 (A549 NSCLC) was 3.1 µM, the TGI (A549 NSCLC) was > 100 µM and the GI50 (OVCAR-5 ovarian) was 1.69 µM. It also gave a TGI (OVCAR-5 ovarian) of 3.2 µM.
